# Laboratory results: patent publication US8993558B2, “Compositions comprising a calcium channel blocker or a calmodulin blocker for use in the removal of hyperplastic skin lesions” (priority 2008, dated 2015)
# Structures can show the parent of a compound that is named as a salt.
# Experiments:
# [1] = system: outwardly-rectifying chloride channel; conditions: 50 microM; cited from earlier work
# genital warts = assay: Topical treatment of genital (veneral) warts in patients; type: in vivo, human
# Procedure: (§1) A person applied 0.1 ml of Trifluoperazine Topical Gel 30 mg/ml twice daily topically to several genital warts and a skin tag in the right axillary area.
# A person applied 0.1 ml of Diltiazem supplied in 3 ml syringes with removable caps dissolved at a concentration of 100 mg/ml in an ointment twice daily topically to several genital warts.
# plantar wart = assay: Topical treatment of plantar warts in patients
# Procedure: The warts were 2-5 mm in diameter. The patient was instructed to apply the cream 2-3 times per day to the three plantar warts, Patient used the medication regularly for approximately 4 weeks.
# A mixture of Diltiazem dissolved at a concentration of 100 mg/ml in an ointment was applied in small amounts directly to a single small 3 mm diameter plantar wart on sole under the 1st metatarsal-phallangeal joint on the left foot of a person. The patient applied the cream to the gauze pad of a bandage and then taped the bandage over the sole of the foot so that the Diltiazem 100 mg/ml ointment was in contact with the wart. The bandage was replaced daily after showering and this was continued for six weeks.
# A person applied 0.1 ml of Trifluoperazine Topical Gel 30 mg/ml twice daily topically to a approximately […] plantar wart that was large enough to make walking painful.
# skin tag = assay: Treatment of skin tags in patients (injection or topical); type: in vivo, human
# Procedure: A person had multiple skin tags around their neck where they wore a gold necklace. A mixture of Diltiazem dissolved at a concentration of 100 mg/ml in an ointment was given to the patient with instructions to apply the ointment 1-2 times per day in small amounts directly to the skin tags.
# as §1
# callouses = assay: Topical treatment of callouses in patients; type: in vivo, human
# Procedure: A person had thick painful callouses over the lateral aspect of the 1st metatarsal-phallangeal joint on both feet. A mixture of Diltiazem dissolved at a concentration of 100 mg/ml in an ointment was given to the patient with instructions to apply the ointment 2-3 times per day in small amounts directly to only the callous locate on the 1st metatarsal-phallangeal joint of the left foot, and specifically not to use the ointment on the right foot.
# A recreational tennis player had bilateral thickened calluses over the right and left 5th distal metatarsal head of both feet. These callouses were causing their significant pain and disability when they played tennis. The patient was treated with Trifluoperazine and Felodipine impregnated bandages.
# Initially a water-proof bandage on which the mixture of Trifluoperazine 30 mg/ml Gel was applied to the adsorbent pad of the bandage with the pad being sized to cover the thickest area of the callous over the was right 5th distal metatarsal head. The pad of the waterproof bandage was applied to the callous and patient was instructed to replace the bandage 1-2 times per day with a new Trifluoperazine impregnated bandage after each shower/bath.
# The patient was then given a one month supply of water-proof bandages on which the mixture of Felodipine 100 mg/ml ointment had been applied to the adsorbent pad of the bandage with the pad being sized to cover the thickest area of the callous over the was on the left 5th distal metatarsal head. The pad of the waterproof bandage was applied to the callous and patient was instructed to replaced the bandage 1-2 times per day with a new Felodipine impregnated bandage after each shower/bath.
# psoriatic plaques = assay: Topical treatment of psoriatic plaques; type: in vivo, human
# keloid [2] = assay: Topical treatment of keloids in patients; type: in vivo, human; conditions: for keloid appearance: Example 17: 100 mg/ml ointment, keloid over mastoid process (Felodipine right, Diltiazem left); for keloid relapse: Example 17: follow up at 6 and 9 months
# Procedure: A person had keloids that had formed over several areas of the donor site scar from a previous hair transplant several years ago over the occipital area of the scalp from mastoid process to mastoid process. The keloids over the mastoid process on right side were initially treated with Felodipine 100 mg/ml ointment. The patient had been given instructions to apply the Felodipine 100 mg/ml ointment several times per day to the right side only and the patient was seen weekly in follow up.
# corn = conditions: person
# keloid [3] = assay: Topical treatment of keloids in patients; type: in vivo, human; conditions: Example 17: applied for two weeks twice daily to the donor surgical sites
# P-glycoprotein = conditions: hepatocyte canalicular membrane; cited from earlier work
# [4] = Example 18: Topical Gel 30 mg/ml, four weeks of use, follow up a month later
# [5] = Example 13: 0.1 ml Topical Gel 30 mg/ml twice daily, three weeks
compound,measurement,setting,value
CC[C@]1(O)C[C@@H]2CN(CCc3c([nH]c4ccccc34)[C@@](C(=O)OC)(c3cc4c(cc3OC)N(C)[C@H]3[C@@](O)(C(=O)OC)[C@H](OC(C)=O)[C@]5(CC)C=CCN6CC[C@]43[C@@H]65)C2)C1 [vinblastine],block of outwardly-rectifying chloride channel,[1],blocked
"COc1ccc([C@@H]2Sc3ccccc3N(CCN(C)C)C(=O)[C@@H]2OC(C)=O)cc1 [Diltiazem, (+)-cis-3-Acetoxy-5-(2-dimethylaminoethyl)-2,3-dihydro-2-(4-methoxyphenyl)-1,5-benzothiazapin-4(5H)-one hydrochloride]",genital wart clearing,"genital warts; Example 19: 100 mg/ml ointment, follow up at 5 weeks",complete clearing of the genital warts
same,genital wart clearing,"genital warts; Example 19: 0.1 ml of 100 mg/ml ointment twice daily, person, three weeks",significant clearing
same,plantar wart size,"plantar wart; Example 5: 100 mg/ml ointment on bandage daily, 3 mm wart, person, after about two weeks",dramatically shrunk in size
same,plantar wart outcome,"plantar wart; Example 5: 100 mg/ml ointment on bandage daily, person, six weeks",not detected
same,plantar wart recurrence,"plantar wart; Example 5: person, reassessed after 3 months",no evidence of recurrence of the plantar wart
same,skin tags remaining,"skin tag; Example 9: 100 mg/ml ointment 1-2 times per day, multiple neck skin tags, person, one month",only a few small skin tags remaining
same,skin tag outcome,"skin tag; Example 9: 100 mg/ml ointment off and on, person, after 3 months",completely cleared
same,callous thickness,"callouses; Example 6: 100 mg/ml ointment 2-3 times per day, left foot only (right foot control unchanged), person, three weeks",dramatic reduction in the thickness of the callous
same,psoriatic plaque clearing,"psoriatic plaques; Example 11: 100 mg/ml ointment, left leg",significant clearing
same,keloid appearance,"keloid [2]; person, after 1 week",noticeable softening
same,keloid appearance,keloid [2]; after 2 weeks,noticeable flattening and continued softening
same,keloid appearance,keloid [2]; by six weeks,flattened to the level of the adjoining skin
same,keloid relapse,keloid [2],no relapse of the initial cosmetic improvement
same,pain associated with wearing shoes,"corn; Example 7: 100 mg/ml ointment 2-3 times per day, one month",significant reduction in pain
same,corn thickness,"corn; Example 7: 100 mg/ml ointment 2-3 times per day, second toe, one month",noticeable reduction in the thickness of the corn
same,corn outcome,"corn; Example 7: 100 mg/ml ointment off and on, after 6 months",the corn had dissappeared
same,new keloid formation at FUE graft donor sites,keloid [3],no new keloid formation
"CCOC(=O)C1=C(C)NC(C)=C(C(=O)OC)C1c1cccc(Cl)c1Cl (stereo not drawn) [Felodipine, Ethyl methyl 4-(2,3-dichlorophenyl)-1,4-dihydro-2,6-dimethylpyridine-3,5-dicarboxylate]",pain when running and playing tennis,"callouses; Example 14: 100 mg/ml ointment impregnated bandage 1-2 times per day, left foot, after 3 weeks",pain free on both sides
same,psoriatic plaque clearing,"psoriatic plaques; Example 11: Topical ointment 100 mg/ml, left hand and wrist",significant clearing
same,keloid appearance,"keloid [2]; person, after 1 week",noticeable softening
same,keloid appearance,keloid [2]; after 2 weeks,noticeable flattening and continued softening
same,keloid appearance,keloid [2]; by six weeks,flattened to the level of the adjoining skin
same,keloid relapse,keloid [2],no relapse of the initial cosmetic improvement
same,new keloid formation at FUE graft donor sites,keloid [3],no new keloid formation
COc1cccc2c1C(=O)c1c(O)c3c(c(O)c1C2=O)C[C@@](O)(C(C)=O)C[C@@H]3O[C@H]1C[C@H](N)[C@H](O)[C@H](C)O1 [daunorubicin],transport of permanently charged amphiphilic cations,P-glycoprotein,inhibited
same,block of outwardly-rectifying chloride channel,[1],blocked
C=C[C@H]1C[N@@]2CC[C@H]1C[C@@H]2[C@@H](O)c1ccnc2ccc(OC)cc12 [quinidine],transport of permanently charged amphiphilic cations,P-glycoprotein,inhibited
COc1cc2c(c(OC)c1OC)-c1ccc(OC)c(=O)cc1[C@@H](NC(C)=O)CC2 [colchicine],block of outwardly-rectifying chloride channel,[1],blocked
"CN1CCN(CCCN2c3ccccc3Sc3ccc(C(F)(F)F)cc32)CC1.Cl.Cl [Trifluoperazine, 10-[3-(4-Methylpiperazin-1-yl)propyl]-2-trifluoromethyl-phenothiazine dihydrochloride]",genital wart clearing,"genital warts; Example 18: 0.1 ml Topical Gel 30 mg/ml twice daily, person, three weeks",significant clearing
same,genital wart clearing,genital warts; [4],complete clearing
same,plantar wart clearing,"plantar wart; Example 13: 0.1 ml Topical Gel 30 mg/ml twice daily, person, three weeks",significant clearing
same,irritation or erythema around the lesion,plantar wart; [5],no irritation or erythema
same,pain on walking and weight bearing,plantar wart; [5],weight bearing without pain
same,plantar wart outcome,"plantar wart; Example 13: Topical Gel 30 mg/ml, stopped for the past two weeks, six weeks follow up",the wart was no longer visible
same,plantar wart recurrence,"plantar wart; Example 13: gel not used for over 3 months, seen at 4 months",no recurrence of the wart
same,skin tag clearing,"skin tag; Example 18: 0.1 ml Topical Gel 30 mg/ml twice daily, right axillary area, three weeks",significant clearing
same,skin tag clearing,skin tag; [4],complete clearing
same,callous softness and thickness,"callouses; Example 14: 30 mg/ml Gel impregnated bandage 1-2 times per day, right foot, person, within one week",a softening and a reduction in the thickness of the callous
same,pain or disability,"callouses; Example 14: 30 mg/ml Gel impregnated bandage, right foot (untreated left side still painful), after two weeks",no longer having any pain or disability
same,callous thickness,"callouses; Example 14: 30 mg/ml Gel impregnated bandage, right foot, after two weeks",had thinned
same,pain while playing tennis,"callouses; Example 14: 30 mg/ml Gel impregnated bandage, right foot, within one week",reduced pain while playing tennis
